Experimental data taken from patent US5200419A, “Substituted tetrazoles and derivatives thereof acting at muscarinic receptors” (Warner-Lambert Company, priority 1990, dated 1993).

Tests used:
[1] = in vivo; cited from earlier work
[2] = tested on: central muscarinic agonist site; experiment: Receptor [^3 H]Cis-methyldioxalane Assay (RCMD), rat cerebral cortex; format: binding
[3] = tested on: central muscarinic antagonist site; format: binding; conditions: rat cerebral cortex, [3H]quinuclidinyl benzilate
[4] = aged humans and nonhuman primates with decreased cognition; cited from earlier work

SMILES | age-related cognitive deficits [1] | RCMD (% Inhibition at 0.1 μM) [2] [%] | RQNB (% Inhibition at 1 μM) [3] [%] | memory [4]
Nc1ccncc1N [3,4-diaminopyridine] | ameliorate age-related cognitive deficits |  |  | 
CCc1nnnn1C1CN2CCC1CC2 (centres unmarked) [Example 1b, 3-(5-Ethyl-1H-tetrazol-1-yl)-1-azabicyclo[2.2.2]-octane] |  | 15 | 11 | 
Cc1nnnn1C1CN2CCC1CC2 (centres unmarked) [Example 1a, 3-(5-Methyl-1H-tetrazol-1-yl)-1-azabicyclo[2.2.2]octane] |  | 8 | 19 | 
c1nnnn1C1CN2CCC1CC2 (centres unmarked) [Example 1, 3-(1H-Tetrazol-1-yl)-1-azabicyclo[2.2.2]octane] |  | 0 | 7 | 
CNC(=O)Oc1ccc2c(c1)[C@]1(C)CCN(C)[C@@H]1N2C [physostigmine] |  |  |  | improved memory
